US20150075790A1, “OILFIELD BIOCIDE” (SCHLUMBERGER TECHNOLOGY CORPORATION, priority 2013, published 2015)

How the values were obtained:
Format in all cases: physicochemical
[1] = system: bacteria or other biological agents known to degrade such fluids; experiment: Viscosity of guar fluid after aging at 25° C. in a non-sterile environment (biocidal activity on a guar system); settings: relatively dilute concentrations; period of at least 6 days
Excerpt: For purposes herein, aging of a fluid (e.g., a solution or mixture) in a non-sterile environment for purposes of determining the inhibition of biological degradation of the fluid may include the steps of preparing and characterizing a fluid in a non-sterile environment followed by allowing the fluid to age in the non-sterile environment (or non-sterile container) which is, or which has been in fluid communication with an external environment such that the fluid has been exposed to the ambient environment which inherently contains bacteria or other biological agents known to degrade such fluids at room temperature (i.e., 25° C.), followed by characterizing the aged fluid in essentially the same way under the same conditions using the same method utilized to characterize the fluid initially. […] The biocidal activity of a 2-oxo-aldehyde having 3 or more carbon atoms such as methylglyoxal on a guar system was evaluated. […] Samples were maintained at room temperature and their viscosities were measured directly after their preparation (in a non-sterile environment) and then again determined after the different periods of time aging at 25° C. in a non-sterile environment as indicated. The viscosity of sample B was determined initially and then again after 1, 2, 3, and 6 days of aging at 25° C. in a non-sterile environment, i.e., in a covered beaker on a lab bench. […]

[2] = Vortex closure time of boron-crosslinked guar solution, initially and after aging
Protocol: The effects of the biocide on cross linking were evaluated. It is known that chemical contamination may have a detrimental impact on the cross linking of guar and other polymers. The impact of 2-oxo-aldehyde such as MGO on guar crosslinking was evaluated using the vortex closure time of a solution of guar. Vortex closure time is determined by charging a portion of the gel in a blender and measuring the time required for the vortex produced upon initiation of mixing the solution in the blender to close. […] In other words, a non-crosslinked or minimally crosslinked mixture with have an infinite vortex closure time. The higher the level of crosslinking, the shorter the vortex closure time once mixing is initiated.
A comparative sample E and a sample F were prepared by mixing 0.5 g of guar in 99.5 g water and mixing in the blender. Sample F further included 0.4 g MGO solution (0.16 g of MGO). No vortex closure occurred while mixing the uncrosslinked samples. Next, an amount of a Boron based crosslinking agent was added to each of the mixing samples and the initial vortex closure time was measured as shown in Table 4. The vortex closure time was then measured after 4 days of aging at room temperature (25° C.) in a non-sterile environment, and then again after 6 days of aging at 25° C. […] The data also confirm that biological degradation has a pronounced effect on cross-linking.

[3] = Breaking schedule of crosslinked guar gel with oxidizer (breaker), viscosity at 66° C.; settings: shear rate 100 sec^-1, 66° C. (150° F.)
Protocol: Two samples were evaluated to determine the impact of the MGO on the breaking schedule of a guar solution. The viscosity of each sample was measured at a shear rate of 100 sec^−1 while aging at 66° C. (150° F.) in the presence of an oxidizer (a breaker) to determine the effect 2-oxo-aldehyde such as MGO has on gel stability. The data is shown graphically in FIG. 4.

[4] = system: biological degradation of the concentrated guar fluids; experiment: Viscosity of highly concentrated guar fluids (water in water emulsion) after aging and dilution; settings: ~200 ppt guar
Protocol: The efficacy of 2-oxo-aldehyde such as MGO as a biocide was investigated on highly concentrated guar fluids (˜200 ppt) produced as a water in water emulsion. Comparative sample G and sample H were prepared without and with MGO respectively. After dilution of the concentrated fluids (1 part of sample to 4 parts of water) their rheological properties were measured after 0, 1, 2, 3, and 4 days. The data are shown graphically in FIG. 5. […] After three days of aging at 25° C., comparative sample G (without MGO) presents a much lower viscosity than its initial value at day 0, i.e. the fluid in comparative sample G has been degraded.

CC(=O)C=O [MGO, methylglyoxal]
Effectiveness in reducing biological degradation of the guar fluid [1]: effective in reducing biological degradation | Impact on the vortex closure time ([2]; 160 mg/L (0.4 gpt), even after several days): does not have any impact on the vortex closure time | Interference with crosslinking of the polymer ([2]; boron based crosslinking agent, guar): does not prevent or interfere with the crosslinking | Impact on the breaking schedule of a guar gel (FIG. 4) [3]: does not have a significant impact on the breaking schedule | Prevention of biological degradation of concentrated guar fluids [4]: has prevented biological degradation
